# Data published in publication PMC9616412, “Nebulized fusion inhibitory peptide protects cynomolgus macaques from measles virus infection” (Nature Communications, 2022).
# Conditions: 74 MBq in 3 ml NaCl 0.9%, mesh nebulizer; Mean +/- SD of four experiments
# Description: Following European recommendations, 2 five-year-old healthy female cynomolgus macaques, 3–4 kg, were housed under conventional conditions in the animal facility. […] Animals were acclimatized to laboratory conditions and trained to breathe an aerosol with a facemask spontaneously. Aerosol generated from 3 ml of 0.9% NaCl mixed with 74 MBq of DTPA radiolabeled with technetium 99 m (^99mTc-DTPA) was administered through a facemask connected to the prototype mesh nebulizers, as used in MeV infection experiments (Fig. 2a). Deposition of aerosol was extrapolated based on the ^99mTc-DTPA signal measured at the end of the nebulization using a gamma camera (Orbiter 75 Ecam, Siemens healthcare, Erlangen, Germany)[69]. The nebulizer charge was measured by counting the radioactivity in the syringe (that contained ^99mTc-DTPA) before and after loading the nebulizers. Immediately after aerosol delivery, the animals were imaged using the gamma camera. The post-anterior static scintigraphy acquisition was performed for 120 s. The amount of ^99mTc-DTPA deposited into airways and stomach and remaining in the nebulizer was determined from the digitalized images taking into account the tissue attenuation coefficients, previously determined by perfusion scintigraphy (intravenous injection of ^99mTc-macroagregates of albumin). The organ body outline was specified using a specific Region Of Interest (ROI), and the lungs were delineated using the perfusion scan ROI. The aerosol dose delivered to different organs of NHPs is reported as a percentage of the nominal dose placed in the nebulizer for that given experiment, taking into account the decay of technetium for all measurements.
smiles,measurement,value
"O=C([O-])CN(CCN(CC(=O)[O-])CC(=O)[O-])CCN(CC(=O)[O-])CC(=O)[O-].[99Tc+4] [99mTC-DTPA, DTPA radiolabeled with technetium 99 m]","Deposition in macaque, Esophagus / trachea",3.4 +/- 4.2%
same,"Deposition in macaque, Lungs",11.4 +/- 3.1%
same,"Deposition in macaque, Stomach",11.9 +/-9.2%
same,"Deposition in macaque, Upper respiratory Tract",29.5 +/- 11.9%
